We go through 24 compounds from patent US10030016B2 (Sunesis Pharmaceuticals, Inc., priority 2009, dated 2018).

Counter-ions that a name gives are not always drawn. Like-named read-outs stand apart in the source and are kept apart here.

For test [1], the target named is PDK1 (Homo sapiens (Human), UniProt O15530). Briefly: PDK1 kinase assay (coupled PDK1/AKT/FAM-crosstide assay, IMAP fluorescence polarization). It is filed as biochemical. In short, it runs like this: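 Coupled cascade: 0.75 nM PDK1 (51-359) → 10 nM AKT2 (140-467-PIFtide) → 100 nM FAM-crosstide. ATP 40 μM, 25° C, 30 min. IMAP FP (ex 485/em 530), 2 h binding. ΔmP vs conc, 4-param fit.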
Chain of PDK1 (O15530 51-359): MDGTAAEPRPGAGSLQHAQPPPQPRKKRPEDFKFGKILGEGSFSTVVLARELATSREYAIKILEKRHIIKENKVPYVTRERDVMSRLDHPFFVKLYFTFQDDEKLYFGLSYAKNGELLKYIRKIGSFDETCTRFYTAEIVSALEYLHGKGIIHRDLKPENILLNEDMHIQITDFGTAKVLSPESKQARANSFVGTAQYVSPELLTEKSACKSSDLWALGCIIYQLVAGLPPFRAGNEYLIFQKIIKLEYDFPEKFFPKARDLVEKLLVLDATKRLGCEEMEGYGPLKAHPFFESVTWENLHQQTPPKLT
A general note: Polarisation of emitted light reports the rotation of a fluorescent probe.

Test [2] deals with phospho-akt (Thr308) in PC-3 cells. Briefly: Inhibition of phospho-akt (Thr308) in PC-3 cells, MSD phospho-akt 308 ELISA kit. The note with it: 2 hours, no serum, read-out: EC50. It is filed as cell-based. In short, it runs like this:
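Electrochemiluminescent MSD ELISA of Thr308-phosphorylated Akt after a 2 h serum-free compound exposure of PC-3 cells (15,000/well, plated overnight). Controls: DMSO (high), 5 μM wortmannin (low). Lysate binding overnight at 4 °C; detection antibody 1 h at room temperature.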
A general note: An ELISA detects its analyte on a solid surface through an enzyme-linked reagent.

Where [3] appears, read: inhibition of phospo-PDK1 in vitro.
Setting [4] is: Homo sapiens, inhibition of P308 Akt in PC-3 cells, MSD.
[5] abbreviates: Homo sapiens, inhibition of P308 Akt in PC-3 cells using MSD.

Regarding `O=C(c1cccnc1NCc1cccc(-c2c[nH]c3ncccc23)c1)N1CCCCC1` [Example 1.13, Piperidin-1-yl(2-{[3-(1H-pyrrolo [2,3-b]pyridin-3-yl)benzyl]amino}pyridin-3-yl)methanone], the IC50 (usually the midpoint of a concentration-inhibition curve) in test [1] (setting [3]) is greater than 5 µM. Further, the EC50 (usually the concentration giving half of the maximal effect) in test [2] (setting [4]) was greater than 10 µM.
In the case of `C[C@H](NC(=O)c1cc(C(F)(F)F)cnc1NCc1ccc(-c2cnc3[nH]ncc3c2)cc1)c1ccc(F)c(F)c1` [Example 394, N-[(S)-1-(3,4-Difluoro-phenyl)-ethyl]-2-[4-(1H-pyrazolo [3,4-b]pyridin-5-yl)-benzylamino]-5-trifluoromethyl-nicotinamide], the IC50 in test [1] (inhibition of PDK1 in vitro) is less than 0.1 µM. The EC50 in test [2] (setting [5]) is less than 1 µM.
In test [1] (setting [3]), `C[C@H](NC(=O)c1cccnc1NCc1ccc(-c2ccc3ncnc(N)c3c2)s1)c1ccc(F)cc1F` [Example 3.61, (S)-2-(((5-(4-aminoquinazolin-6-yl)thiophen-2-yl)methyl)amino)-N-(1-(2,4-difluorophenyl)ethyl) nicotinamide (TFA salt)] returned an IC50 of 0.1 to 1 µM. In addition, the EC50 in test [2] (setting [4]) is greater than 10 µM.
The corresponding values for `CC(C)Oc1cc(CNc2ncccc2C(=O)N[C@@H](C)c2ccccc2)cc(-c2c[nH]c3ncc(C(=O)NC4CC4)cc23)c1` [Example 4.1.13, N-cyclopropyl-3-[3-{[(3-{[(1S)-1-phenylethyl]carbamoyl}pyridin-2-yl)amino]methyl}-5-(propan-2-yloxy)phenyl]-1H-pyrrolo[2,3-b] pyridine-5-carboxamide] are less than 0.1 µM and 1 to 10 µM.
As to `C[C@H](NC(=O)c1cc(C#N)cnc1NCc1ccc(-c2cnc(N)c(-c3cccc(O)c3)n2)cc1)c1ccc(F)cc1` [Example 234, 2-{4-[5-Amino-6-(3-hydroxy-phenyl)-pyrazin-2-yl]-benzylamino}-5-cyano-N-[(S)-1-(4-fluoro-phenyl)-ethyl]-nicotinamide], in test [1] (inhibition of PDK1 in vitro), the IC50 is less than 0.1 µM. In test [2] (Homo sapiens, PC-3, 2 h, inhibition of P308 Akt in PC-3 cells using MSD), the EC50 lay within 1 to 10 µM.
Compound `C[C@@H](Nc1ncc(C(F)(F)F)cc1C(=O)Nc1ccc(F)cc1)c1ccc(-c2cn(C)c3ncnc(N)c23)cc1` [Example 403, (R)-2-(1-(4-(4-amino-7-methyl-7H-pyrrolo[2,3-d]pyrimidin-5-yl)phenyl)ethylamino)-N-(4-fluoro-phenyl)-5-(trifluoromethyl) nicotinamide] came in with an IC50 in test [1] (inhibition of PDK1 in vitro) of less than 0.1 µM. In test [2] (setting [5]), the EC50 was in the range of 1 to 10 µM.
For the compound `CC(C)Oc1cc(CNc2ncccc2C(=O)N(C)C2CC2)cc(-c2c[nH]c3ncc(C(=O)NC4CC4)cc23)c1` [Example 4.1.10, N-cyclopropyl-3-{3-[({3-[cyclopropyl(methyl)carbamoyl]pyridin-2-yl}amino)methyl]-5-(propan-2-yloxy)phenyl}-1H-pyrrolo[2,3-b] pyridine-5-carboxamide], in test [1] (setting [3]), the IC50 was greater than 5 µM. For the same compound, in test [2] (setting [4]), the concentration for a half-maximal effect (EC50) fell in the range of 1 to 10 µM.
In the case of `CC(C)Oc1cc(CNc2ncccc2C(=O)NCc2ccc(F)c(F)c2)cc(-c2c[nH]c3ncc(-c4ccc[nH]4)cc23)c1` [Example 335, 2-(3-(5-(1H-pyrrol-2-yl)-1H-pyrrolo[2,3-b]pyridin-3-yl)-5-isopropoxybenzylamino)-N-(3,4-difluorobenzyl) nicotinamide], in test [1] (inhibition of PDK1 in vitro), the 50% inhibitory concentration (IC50) was less than 0.1 µM. For the same compound, the EC50 in test [2] (setting [5]) was greater than 10 µM.
`C[C@H](NC(=O)c1cc(C#N)cnc1NCc1ccc(-c2cnc3c(c2)OCCN3)cc1)c1ccc(F)cc1` [Example 137, (S)-5-cyano-2-(4-(3,4-dihydro-2H-pyrido [3,2-b][1,4]oxazin-7-yl)benzylamino)-N-(1-(4-fluorophenyl)ethyl)nicotinamide] had an IC50 in test [1] (inhibition of PDK1 in vitro) of less than 0.1 µM. Moreover, in test [2] (setting [5]), the EC50 was in the range of 1 to 10 µM.
Regarding `Cc1cc(N)ncc1-c1ccc(CNc2ncc(C#N)cc2C(=O)N[C@@H](C)c2ccc(F)cc2)cc1` [Example 121, (S)-2-(4-(6-amino-4-methylpyridin-3-yl)benzylamino)-5-cyano-N-(1-(4-fluorophenyl)ethyl) nicotinamide], the IC50 in test [1] (inhibition of PDK1 in vitro) is 0.1 to 1 µM. In addition, in test [2] (setting [5]), the EC50 is greater than 10 µM.
As to `O=C(NCc1ccc(F)c(F)c1)c1cccnc1NCc1ccc(-c2c[nH]c3ncccc23)s1` [Example 1.17, 2-(((5-(1H-pyrrolo[2,3-b]pyridin-3-yl)thiophen-2-yl)methyl)amino)-N-(3,4-difluorobenzyl)nicotinamide], the IC50 in test [1] (setting [3]) fell in the range of 0.1 to 1 µM. Further, in test [2] (Homo sapiens, PC-3, 2 h, inhibition of P308 Akt in PC-3 cells, MSD), the concentration for a half-maximal effect (EC50) was greater than 10 µM.
In the case of `Nc1ncnc2ccc(-c3ccc(CNc4nccnc4C(=O)NCc4cccc(F)c4F)s3)cc12` [Example 3.74, 3-({[5-(4-aminoquinazolin-6-yl)thiophen-2-yl]methyl}amino)-N-(2,3-difluorobenzyl)pyrazine-2-carboxamide (TFA salt)], the half-inhibitory concentration (IC50) in test [1] (setting [3]) was 0.1 to 1 µM. Besides, in test [2] (setting [4]), the EC50 is greater than 10 µM.
The compound `C[C@H](NC(=O)c1cc(F)cnc1NCc1ccc(-c2cc3c(N)ncnc3cn2)s1)c1ccc(F)c(F)c1` [Example 7.15, 2-({[5-(4-aminopyrido[3,4-d]pyrimidin-6-yl)thiophen-2-yl]methyl}amino)-N-[(1S)-1-(3,4-difluorophenyl)ethyl]-5-fluoropyridine-3-carboxamide] had an IC50 in test [1] (setting [3]) of 0.1 to 1 µM. For the same compound, the concentration for a half-maximal effect (EC50) in test [2] (setting [4]) lay within 1 to 10 µM.
`C[C@H](NC(=O)c1cc(C#N)cnc1N[C@H](C)c1ccc(-c2cn(C)c3ncnc(N)c23)cc1)c1ccc(F)cc1` [Example 434, 2-{(R)-1-[4-(4-Amino-7-methyl-7H-pyrrolo[2,3-d]pyrimidin-5-yl)-phenyl]-ethylamino}-5-cyano-N-[(S)-1-(4-fluoro-phenyl)-ethyl]-nicotinamide] had a 50% inhibitory concentration (IC50) in test [1] (inhibition of PDK1 in vitro) of less than 0.1 µM. Further, the concentration giving a half-maximal response (EC50) in test [2] (setting [5]) is less than 1 µM.
The corresponding values for `C[C@H](NC(=O)c1cc(C#N)cnc1NCc1ccc(-c2cnc(Nc3ccn(C)n3)nc2)cc1)c1ccc(F)cc1` [Example 125, (S)-5-cyano-N-(1-(4-fluorophenyl)ethyl)-2-(4-(2-(1-methyl-1H-pyrazol-3-ylamino)pyrimidin-5-yl)benzylamino) nicotinamide] are less than 0.1 µM and 1 to 10 µM.
As to `CN(c1ncnc2ccc(-c3ccc(CNc4ncccc4C(=O)NCc4ccc(F)c(F)c4)s3)cc12)C1CCCCC1` [Example 4.21, 2-(((5-(4-(cyclohexyl (methyl)amino)quinazolin-6-yl)thiophen-2-yl)methyl)amino)-N-(3,4-difluorobenzyl) nicotinamide], the IC50 in test [1] (setting [3]) is greater than 5 µM. Moreover, in test [2] (setting [4]), the half-maximal effective concentration (EC50) was greater than 10 µM.
With `Cn1cc(-c2ccc(CNc3ncc(C(F)(F)F)cc3C(=O)NCc3ccc(F)c(F)c3)cc2)c2c(N)ncnc21` [Example 331, 2-(4-(4-amino-7-methyl-7H-pyrrolo[2,3-d]pyrimidin-5-yl)-benzylamino)-N-(3,4-difluorobenzyl)-5-(trifluoromethyl)nicotinamide], the IC50 in test [1] (inhibition of PDK1 in vitro) is less than 0.1 µM. In addition, the EC50 in test [2] (setting [5]) was less than 1 µM.
Consider `Nc1ncnc2ccc(-c3ccc(CNc4ncc(Cl)cc4C(=O)NCc4ccc(F)c(F)c4)s3)cc12` [Example 8.12.3, 2-({[5-(4-aminoquinazolin-6-yl)thiophen-2-yl]methyl}amino)-5-chloro-N-(3,4-difluorobenzyl)pyridine-3-carboxamide], for which, in test [1] (setting [3]), the half-inhibitory concentration (IC50) lay within 1 to 5 µM. Further, the EC50 in test [2] (setting [4]) is 1 to 10 µM.
Regarding `C[C@H](NC(=O)c1cccnc1NCc1ccc(-c2ccc3ncnc(N4CCC4)c3c2)s1)c1ccc(F)c(F)c1` [Example 387, 2-{[5-(4-Azetidin-1-yl-quinazolin-6-yl)-thiophen-2-ylmethyl]-amino}-N-[(S)-1-(3,4-difluoro-phenyl)-ethyl]-nicotinamide], the IC50 in test [1] (inhibition of PDK1 in vitro) is less than 0.1 µM. The EC50 in test [2] (setting [5]) lay in the range of 1 to 10 µM.
With `CC(C)n1cc(-c2ccc(CNc3ncc(C(F)(F)F)cc3C(=O)Nc3ccc(F)cc3)cc2)c2c(N)ncnc21` [Example 442, 2-(4-(4-amino-7-isopropyl-7H-pyrrolo[2,3-d]pyrimidin-5-yl)benzylamino)-N-(4-fluorophenyl)-5-(trifluoromethyl)nicotinamide], the IC50 in test [1] (setting [3]) is less than 0.1 µM. Also, in test [2] (setting [5]), the EC50 is less than 1 µM.
Turning to `Nc1ncnc2ccc(-c3cccc(CNc4ncccc4C(=O)NCc4ccc(F)c(F)c4)c3)cc12` [Example 6.1, 2-(3-(4-aminoquinazolin-6-yl)benzylamino)-N-(3,4-difluorobenzyl)nicotinamide], the IC50 in test [1] (setting [3]) was less than 0.1 µM. For the same compound, the EC50 in test [2] (setting [4]) was in the range of 1 to 10 µM.
Compound `C[C@H](NC(=O)c1cccnc1NCc1cccc(-c2c[nH]c3ncnc(N)c23)c1)c1ccc(F)cc1` [Example 2.29, (S)-2-(3-(4-amino-7H-pyrrolo[2,3-d]pyrimidin-5-yl)benzylamino)-N-(1-(4-fluorophenyl)ethyl) nicotinamide] yielded a 50% inhibitory concentration (IC50) in test [1] (setting [3]) of less than 0.1 µM. Besides, in test [2] (inhibition of P308 Akt in PC-3 cells, MSD), the concentration for a half-maximal effect (EC50) lay within 1 to 10 µM.
With `CCNS(=O)(=O)c1cnc(NCc2ccc(-c3ccc4ncnc(N)c4c3)s2)c(C(=O)NC)c1` [Example 8.6.16, 2-(((5-(4-aminoquinazolin-6-yl)thiophen-2-yl)methyl)amino)-5-(N-ethylsulfamoyl)-N-methylnicotinamide], in test [1] (setting [3]), the concentration for half-maximal inhibition (IC50) is greater than 5 µM. For the same compound, in test [2] (setting [4]), the half-maximal effective concentration (EC50) was greater than 10 µM.
Regarding `Nc1ncnc2ccc(-c3ccc(CNc4ncccc4C(=O)Nc4cccc(C(F)(F)F)c4)s3)cc12` [Example 3.53, 2-({[5-(4-aminoquinazolin-6-yl)thiophen-2-yl]methyl}amino)-N-[3-(trifluoromethyl)phenyl]pyridine-3-carboxamide (TFA salt)], the IC50 in test [1] (setting [3]) is greater than 5 µM. In test [2] (setting [4]), the 50% effective concentration (EC50) was greater than 10 µM.
